Assay [1] has as its target T1, Carbonic anhydrase (Methanobacterium thermoautotrophicum, UniProt Q50565).
T1 sequence (Q50565 whole entry): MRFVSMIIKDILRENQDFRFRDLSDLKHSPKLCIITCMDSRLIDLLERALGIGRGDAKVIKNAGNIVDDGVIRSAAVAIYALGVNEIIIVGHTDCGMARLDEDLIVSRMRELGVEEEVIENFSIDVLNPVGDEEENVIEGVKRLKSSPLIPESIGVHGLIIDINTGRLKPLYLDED
Also noted: species or system Methanothermobacter thermautotrophicus str. Delta H.

The target of the next assay is Carbonic anhydrase 4 (Homo sapiens, UniProt P22748). Kind of assay: Inhibitory constant against carbonic anhydrase IV.
Assay [2] deals with T2, Carbonic anhydrase (Methanosarcina thermophila, UniProt P40881).
T2 sequence (P40881 whole entry): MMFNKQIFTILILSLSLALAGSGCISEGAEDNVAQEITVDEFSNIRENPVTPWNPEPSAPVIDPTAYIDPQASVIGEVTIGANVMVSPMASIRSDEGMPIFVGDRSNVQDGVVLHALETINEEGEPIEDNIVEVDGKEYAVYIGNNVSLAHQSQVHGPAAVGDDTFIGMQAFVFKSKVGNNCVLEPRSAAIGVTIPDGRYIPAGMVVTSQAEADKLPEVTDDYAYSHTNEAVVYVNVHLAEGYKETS
It is filed as functional.
Description: Inhibitory constant against Zn-Cam (Methanosarcina thermophila)

In the next assay the target is Carbonic anhydrase 1 (Homo sapiens, UniProt P00915).
Assay [3] concerns the target T1, Carbonic anhydrase. Kind of assay: Inhibitory constant against methanoarchaeon Methanobacterium thermoautotrophicum (Cab). Also noted: species or system Methanothermobacter thermautotrophicus str. Delta H.
The next assay addresses Carbonic anhydrase 2 (Homo sapiens, UniProt P00918).

Each structure is given as a SMILES string. Where “and” joins values, the source holds several entries; their conditions need not be identical. Equal values may be shown once. Some results are limits rather than exact numbers.

Experimental findings from ChEMBL document CHEMBL1137924, “Carbonic anhydrase inhibitors. Inhibition of the beta-class enzyme from the methanoarchaeon Methanobacterium thermoautotrophicum (Cab) with anions” (Bioorg Med Chem Lett, 2004) are described below.

Chain of Carbonic anhydrase 1 (P00915 whole entry): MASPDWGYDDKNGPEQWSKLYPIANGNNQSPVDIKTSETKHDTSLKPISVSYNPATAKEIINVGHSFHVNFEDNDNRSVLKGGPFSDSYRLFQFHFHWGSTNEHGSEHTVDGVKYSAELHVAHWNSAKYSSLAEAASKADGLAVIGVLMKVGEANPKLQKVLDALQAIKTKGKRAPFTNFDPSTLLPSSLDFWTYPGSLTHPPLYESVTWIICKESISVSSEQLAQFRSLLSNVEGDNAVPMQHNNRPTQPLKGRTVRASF
Chain of Carbonic anhydrase 4 (P22748 whole entry): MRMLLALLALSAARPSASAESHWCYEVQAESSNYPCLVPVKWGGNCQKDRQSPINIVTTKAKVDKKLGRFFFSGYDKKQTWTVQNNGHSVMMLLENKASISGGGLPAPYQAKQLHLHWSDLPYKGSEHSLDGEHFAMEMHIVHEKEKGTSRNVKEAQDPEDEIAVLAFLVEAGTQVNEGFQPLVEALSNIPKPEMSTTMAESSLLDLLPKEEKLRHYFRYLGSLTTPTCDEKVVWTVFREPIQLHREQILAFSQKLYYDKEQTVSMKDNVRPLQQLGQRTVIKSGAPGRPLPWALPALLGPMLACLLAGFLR

`O=C(O)O` [BICARBONATE]: the Ki on Carbonic anhydrase [1] was 44.9 mM and 9.6 mM; on Carbonic anhydrase 4, 44 mM; at Carbonic anhydrase [2] it was 42 mM and 6.7 mM.

For the molecule `Br` [BROMIDE], the Ki came out at 4 mM on Carbonic anhydrase 1, 52 mM on Carbonic anhydrase 4, 42.1 mM at Carbonic anhydrase [3] and 160 mM at Carbonic anhydrase [2].

Regarding `Cl` [HYDROCHLORIC ACID], the inhibitory constant (Ki) is 6 mM on Carbonic anhydrase 1, 36 mM on Carbonic anhydrase 4, 152 mM on Carbonic anhydrase [3] and above 200 mM on Carbonic anhydrase [2].

As for `S` [HYDROGEN SULFIDE], the inhibition constant (Ki) stood at 0.7 mM on Carbonic anhydrase [1], 0.0006 mM on Carbonic anhydrase 1 and 0.05 mM on Carbonic anhydrase [2].

Turning to `I` [IODIDE], the inhibition constant (Ki) came to 0.3 mM at Carbonic anhydrase 1, 11 mM at Carbonic anhydrase 4, 13.2 mM on Carbonic anhydrase [3] and 160 mM on Carbonic anhydrase [2].

As to `O=[N+]([O-])O` [NITRIC ACID], the inhibition constant Ki on Carbonic anhydrase [1] worked out at 7.8 mM; on Carbonic anhydrase 1, 7 mM; on Carbonic anhydrase [2], 36.5 mM.

For the molecule `O=NO` [NITROUS ACID], the Ki amounted to 44.8 mM on Carbonic anhydrase [1] and 6.8 mM on Carbonic anhydrase [2].

In the case of `O[B-](O)(O)c1ccccc1` [OXO(PHENYL)-BORANEDIOL], the Ki turned out to be 0.33 mM at Carbonic anhydrase [1], 31.7 mM on Carbonic anhydrase 1, 49.2 mM on Carbonic anhydrase 2 and 0.15 mM on Carbonic anhydrase [2].

Turning to `OB(O)c1ccccc1` [PHENYLBORONIC ACID], the Ki on Carbonic anhydrase [1] worked out at 0.2 mM; on Carbonic anhydrase 1, 58.6 mM; at Carbonic anhydrase [2], 0.23 mM.

With `NS(=O)(=O)O` [SULFAMATE], the inhibition constant (Ki) is 44 mM on Carbonic anhydrase [1], 0.02 mM at Carbonic anhydrase 1 and 9.6 mM at Carbonic anhydrase [2].

Molecule `NS(N)(=O)=O` [SULFAMIDE] gave a Ki on Carbonic anhydrase [2] of 0.07 mM.

At Carbonic anhydrase 4, `O=S(=O)(O)O` [SULFURIC ACID] displayed a Ki of 44 mM. In other words, the millimolar range.

In turn, `N#CS` [THIOCYANIC ACID] showed a Ki on Carbonic anhydrase [2] of 7 mM.

A word on the Ki: it is the equilibrium dissociation constant of an inhibitor or competing ligand from its target. Low values mean higher affinity, high ones lower affinity.
